Measured values from paper PMC6761534 (Antimicrobial Agents and Chemotherapy, 2019).

Columns and labels:
Type in all cases: cell-based, Mycobacterium tuberculosis
[1] = system: M. tuberculosis c subunit mutant strain D28A
[2] = system: M. tuberculosis c subunit mutant strain D28G
[3] = system: M. tuberculosis c subunit mutant strain D28V
[4] = system: M. tuberculosis c subunit mutant strain E61D
[5] = system: M. tuberculosis c subunit mutant strain A63P
[6] = system: M. tuberculosis c subunit mutant strain I66M
[7] = system: M. tuberculosis H37Rv

| SMILES | MIC90 fold increase in M. tuberculosis c subunit mutant strain D28A [1] | MIC90 fold increase in M. tuberculosis c subunit mutant strain D28G [2] | MIC90 fold increase in M. tuberculosis c subunit mutant strain D28V [3] | MIC90 fold increase in M. tuberculosis c subunit mutant strain E61D [4] | MIC90 fold increase in M. tuberculosis c subunit mutant strain A63P [5] | MIC90 fold increase in M. tuberculosis c subunit mutant strain I66M [6] | Mutation frequency [7] | No. of atpE mutants/total no. of mutants isolated [7] |
| --- | --- | --- | --- | --- | --- | --- | --- | --- |
| COc1nc2ccc(Br)cc2cc1[C@@H](c1ccccc1)[C@@](O)(CCN(C)C)c1cccc2ccccc12 [BDQ, Bedaquiline, reference compound] | >400 fold | >400 fold | >400 fold | 312 fold | >400 fold | 262 fold | – | – |
| COc1cc([C@](O)(CCN(C)C)[C@@H](c2cc3cc(Br)ccc3nc2OC)c2cc(OC)nc(OC)c2OC)cc(OC)n1 [TBAJ-876] | 140 fold | 104 fold | 132 fold | 100 fold | 48 fold | 59 fold | 4.23 × 10^−9 | 5/5 |
| COc1cc([C@](O)(CCN(C)C)[C@@H](c2cc3cc(Br)ccc3nc2OC)c2ccnc(OC)c2OC)cc(OC)n1 [compound 5307] | 357 fold | 235 fold | 360 fold | 100 fold | 150 fold | 87 fold | 3.00 × 10^−8 | 33/34 |
| COc1cc([C@](O)(CCN(C)C)[C@@H](c2cc3cc(Br)ccc3nc2OC)c2cccc3c2OCCO3)cc(OC)n1 [compound 5316] | 200 fold | 200 fold | 200 fold | 105 fold | 72 fold | 42 fold | 6.36 × 10^−9 | 7/7 |
| COc1cc([C@](O)(CCN(C)C)[C@H](c2cc(OC(C)C)cnc2OC)c2cc3cc(Br)ccc3nc2OC)cc(OC)n1 [compound 5366] | 333 fold | 300 fold | 250 fold | 45 fold | 50 fold | 50 fold | 2.54 × 10^−8 | 28/28 |
